{"source": "patent US9993494B2", "about": "“Compositions and methods for treating fibrotic disease” (eFFECTOR Therapeutics, Inc., priority 2014, dated 2018)", "test_system": "normal human lung fibroblasts", "assay": "Ribosomal profiling: translational efficiency in TGFβ-treated fibroblasts", "type": "cell-based", "settings": "TGFβ-treated fibroblasts", "procedure": "Ribosomal profiling allows for measurement of changes in transcription and translation on a genome-wide basis accompanying TGFβ-dependent transformation of fibroblasts to myofibroblasts. Ribosomal profiles of the TGFβ-treated fibroblasts from Example 1 (about 6×10^6 cells/10 cm plate) were prepared and analyzed for changes in translational efficiencies with respect to potential disease-associated cellular changes accompanying this TGFβ-induced transformation.\nBriefly, cells were washed with cold PBS supplemented with cycloheximide and lysed with 1× mammalian cell lysis buffer for 10 minutes on ice. Lysates were clarified by centrifugation for 10 minutes at 14,000 rpm and supernatants were collected. Cell lysates were processed to generate ribosomal protected fragments and total mRNA according to the instructions included with the ARTseq Ribosome Profiling Kit (Illumina, San Diego, Calif.). Sequencing of total RNA (RNA) and of ribosome-protected fragments of RNA (RPF) was carried out using RNA-Seq methodology according to the manufacturer's instructions (Illumina). To analyze the ribosomal profiles, RNA-Seq reads were processed with tools from the FASTX-Toolkit (fastq_quality_trimmer, fastx_clipper and fastx_trimmer). Unprocessed and processed reads were evaluated for a variety of quality measures using FastQC, and processed reads were mapped to the human genome using TopHat (see, e.g., Trapnell et al., Bioinformatics 25:1105, 2009). Gene-by-gene assessment of the number of fragments strictly and uniquely mapping to the coding region of each gene was conducted using HTSeq-count, a component of the HTSeq package. […] Genes with low counts in either RPF or RNA were excluded from differential analyses. Pathway and network analyses of differential data were conducted using Ingenuity Pathway Analysis (IPA)."}
{"smiles": "Cc1ccc(=O)n(-c2ccccc2)c1", "note": "[pirfenidone, 5-methyl-1-phenylpyridin-2-one]", "values": [{"measurement": "renormalizing the translational profile of RPL9", "setting": "ENSG00000163682", "result": "+ (+ = 0.9 to 1.5)"}, {"measurement": "renormalizing the translational profile of RHOBTB3", "setting": "ENSG00000164292", "result": "− (− = <0.9)"}, {"measurement": "renormalizing the translational profile of HCN1", "setting": "ENSG00000164588", "result": "− (− = <0.9)"}, {"measurement": "renormalizing the translational profile of RPL27A", "setting": "ENSG00000166441", "result": "+ (+ = 0.9 to 1.5)"}, {"measurement": "renormalizing the translational profile of RP11-382A20.3.1", "setting": "ENSG00000166503", "result": "− (− = <0.9)"}, {"measurement": "renormalizing the translational profile of ANKDD1A", "setting": "ENSG00000166839", "result": "+ (+ = 0.9 to 1.5)"}, {"measurement": "renormalizing the translational profile of RPL13", "setting": "ENSG00000167526", "result": "− (− = <0.9)"}, {"measurement": "renormalizing the translational profile of EEF2", "setting": "ENSG00000167658", "result": "+ (+ = 0.9 to 1.5)"}, {"measurement": "renormalizing the translational profile of CA5B", "setting": "ENSG00000169239", "result": "++ (++ = 1.5 to 2.0)"}, {"measurement": "renormalizing the translational profile of MURC", "setting": "ENSG00000170681", "result": "− (− = <0.9)"}, {"measurement": "renormalizing the translational profile of HTRA3", "setting": "ENSG00000170801", "result": "− (− = <0.9)"}, {"measurement": "renormalizing the translational profile of PDE7B", "setting": "ENSG00000171408", "result": "− (− = <0.9)"}, {"measurement": "renormalizing the translational profile of LPAR3", "setting": "ENSG00000171517", "result": "− (− = <0.9)"}, {"measurement": "renormalizing the translational profile of CTPS", "setting": "ENSG00000171793", "result": "− (− = <0.9)"}, {"measurement": "renormalizing the translational profile of QARS", "setting": "ENSG00000172053", "result": "− (− = <0.9)"}, {"measurement": "renormalizing the translational profile of RPL38", "setting": "ENSG00000172809", "result": "− (− = <0.9)"}, {"measurement": "renormalizing the translational profile of MRPL45", "setting": "ENSG00000174100", "result": "− (− = <0.9)"}, {"measurement": "renormalizing the translational profile of RPL4", "setting": "ENSG00000174444", "result": "+ (+ = 0.9 to 1.5)"}, {"measurement": "renormalizing the translational profile of RPL15", "setting": "ENSG00000174748", "result": "− (− = <0.9)"}, {"measurement": "renormalizing the translational profile of DES", "setting": "ENSG00000175084", "result": "− (− = <0.9)"}, {"measurement": "renormalizing the translational profile of EIF3F", "setting": "ENSG00000175390", "result": "− (− = <0.9)"}, {"measurement": "renormalizing the translational profile of CLCF1", "setting": "ENSG00000175505", "result": "− (− = <0.9)"}, {"measurement": "renormalizing the translational profile of AMIGO3", "setting": "ENSG00000176020", "result": "+ (+ = 0.9 to 1.5)"}, {"measurement": "renormalizing the translational profile of C14orf49", "setting": "ENSG00000176438", "result": "− (− = <0.9)"}, {"measurement": "renormalizing the translational profile of RPLP2", "setting": "ENSG00000177600", "result": "+ (+ = 0.9 to 1.5)"}, {"measurement": "renormalizing the translational profile of IMPDH2", "setting": "ENSG00000178035", "result": "− (− = <0.9)"}, {"measurement": "renormalizing the translational profile of DNAJC22", "setting": "ENSG00000178401", "result": "+ (+ = 0.9 to 1.5)"}, {"measurement": "renormalizing the translational profile of RPL35A", "setting": "ENSG00000182899", "result": "+ (+ = 0.9 to 1.5)"}, {"measurement": "renormalizing the translational profile of LENG9", "setting": "ENSG00000182909", "result": "− (− = <0.9)"}, {"measurement": "renormalizing the translational profile of C22orf32", "setting": "ENSG00000183172", "result": "− (− = <0.9)"}, {"measurement": "renormalizing the translational profile of NPW", "setting": "ENSG00000183971", "result": "− (− = <0.9)"}, {"measurement": "renormalizing the translational profile of PDE4B", "setting": "ENSG00000184588", "result": "+ (+ = 0.9 to 1.5)"}, {"measurement": "renormalizing the translational profile of ROBO2", "setting": "ENSG00000185008", "result": "− (− = <0.9)"}, {"measurement": "renormalizing the translational profile of PTCH1", "setting": "ENSG00000185920", "result": "− (− = <0.9)"}, {"measurement": "renormalizing the translational profile of POLR1D", "setting": "ENSG00000186184", "result": "− (− = <0.9)"}, {"measurement": "renormalizing the translational profile of DYNC2H1", "setting": "ENSG00000187240", "result": "− (− = <0.9)"}, {"measurement": "renormalizing the translational profile of RPL14", "setting": "ENSG00000188846", "result": "− (− = <0.9)"}, {"measurement": "renormalizing the translational profile of LRRK2", "setting": "ENSG00000188906", "result": "− (− = <0.9)"}, {"measurement": "renormalizing the translational profile of NACA", "setting": "ENSG00000196531", "result": "+ (+ = 0.9 to 1.5)"}, {"measurement": "renormalizing the translational profile of LAMB3", "setting": "ENSG00000196878", "result": "− (− = <0.9)"}, {"measurement": "renormalizing the translational profile of PCBP2", "setting": "ENSG00000197111", "result": "− (− = <0.9)"}, {"measurement": "renormalizing the translational profile of MAP3K5", "setting": "ENSG00000197442", "result": "− (− = <0.9)"}, {"measurement": "renormalizing the translational profile of RPL37A", "setting": "ENSG00000197756", "result": "+ (+ = 0.9 to 1.5)"}, {"measurement": "renormalizing the translational profile of RPL12", "setting": "ENSG00000197958", "result": "+ (+ = 0.9 to 1.5)"}, {"measurement": "renormalizing the translational profile of LPAR1", "setting": "ENSG00000198121", "result": "− (− = <0.9)"}, {"measurement": "renormalizing the translational profile of RPL23A", "setting": "ENSG00000198242", "result": "− (− = <0.9)"}, {"measurement": "renormalizing the translational profile of PLN", "setting": "ENSG00000198523", "result": "− (− = <0.9)"}, {"measurement": "renormalizing the translational profile of RPL10A", "setting": "ENSG00000198755", "result": "− (− = <0.9)"}, {"measurement": "renormalizing the translational profile of CES1", "setting": "ENSG00000198848", "result": "− (− = <0.9)"}, {"measurement": "renormalizing the translational profile of RPL39", "setting": "ENSG00000198918", "result": "− (− = <0.9)"}, {"measurement": "renormalizing the translational profile of CARD16", "setting": "ENSG00000204397", "result": "− (− = <0.9)"}, {"measurement": "renormalizing the translational profile of MICA", "setting": "ENSG00000204520", "result": "− (− = <0.9)"}, {"measurement": "renormalizing the translational profile of GNB2L1", "setting": "ENSG00000204628", "result": "+ (+ = 0.9 to 1.5)"}, {"measurement": "renormalizing the translational profile of RPL17", "setting": "ENSG00000215472", "result": "+ (+ = 0.9 to 1.5)"}, {"measurement": "renormalizing the translational profile of RPL41", "setting": "ENSG00000229117", "result": "− (− = <0.9)"}, {"measurement": "renormalizing the translational profile of ARPC1A", "setting": "ENSG00000241685", "result": "− (− = <0.9)"}, {"measurement": "renormalizing the translational profile of CHCHD10", "setting": "ENSG00000250479", "result": "+++ (+++ = >2.0)"}, {"measurement": "renormalizing the translational profile of EEF1G", "setting": "ENSG00000254772", "result": "− (− = <0.9)"}, {"measurement": "number of genes whose translational efficiency was uniquely modulated by the compound", "setting": "duplicate ribosomal profiles", "result": 35, "unit": "genes"}, {"measurement": "effect in renormalizing the translational profile of the gene", "setting": "gene RPS2 (ENSG00000140988)", "result": "− (− = <0.9)"}, {"measurement": "effect in renormalizing the translational profile of the gene", "setting": "gene RPS3 (ENSG00000149273)", "result": "− (− = <0.9)"}, {"measurement": "effect in renormalizing the translational profile of the gene", "setting": "gene RPS3A (ENSG00000145425)", "result": "− (− = <0.9)"}, {"measurement": "effect in renormalizing the translational profile of the gene", "setting": "gene RPS4X (ENSG00000198034)", "result": "− (− = <0.9)"}, {"measurement": "effect in renormalizing the translational profile of the gene", "setting": "gene RPS4Y1 (ENSG00000129824)", "result": "− (− = <0.9)"}, {"measurement": "effect in renormalizing the translational profile of the gene", "setting": "gene RPS5 (ENSG00000083845)", "result": "+ (+ = 0.9 to 1.5)"}, {"measurement": "effect in renormalizing the translational profile of the gene", "setting": "gene RPS6 (ENSG00000137154)", "result": "− (− = <0.9)"}]}
